Results reported in US4342751A (priority 1981, dated 1982).
Where two headings read alike, the source gives them in different places. Numbered stars: 1 amine (or outer) side, 2 acyl side, 3 side chain; on linkers, the order of the positions; unused ones are H or OH. Square brackets hold non-standard residues; d marks the D form. Peptide text beside a SMILES is read from it. X1 = CCC(N[*:1])C(C)C(=O)O[C@H](C(=O)[*:2])[C@@H](C)CC; X2 = C[C@H](N[*:1])C(=O)C(C)(C)C(=O)[*:2]; NMeY = CN[C@@H](Cc1ccc(O)cc1)C(=O)O; NMeI = CC[C@H](C)[C@H](NC)C(=O)O; NMeV = CN[C@H](C(=O)O)C(C)C

Key:
Pythium aphanidermatum = experiment: In vitro agar-dilution test; format: cell-based; set-up: Zone of Growth: unit not given here
Experimental: (§1) In these tests 100× solutions of majusculamide C in 95% aqueous ethanol were used. Majusculamide C solution (0.1 ml) and melted agar (9.9 ml) at 50° C. were mixed. An inoculum plug (6-mm diameter) was placed in the center of each plate; the radial growth of the colony was measured. Zone of growth was measured from the edge of the plug to the edge of the colony.

[1] = tested on: Pythium ultimum Ridomil-resistant strain; experiment: In vitro agar-dilution test, Ridomil-resistant strain; format: cell-based; conditions: for Zone of Growth: control zone 39
Aphanomyces euteiches = experiment: In vitro agar-dilution test; format: cell-based; set-up: Zone of Growth: unit not given beside the values; conditions: for Zone of Growth: control zone 29
Experimental: as §1

Rhizoctonia solani = experiment: In vitro agar-dilution test; format: cell-based; conditions: for Percent Inhibition / Zone of Growth: Table 5; for Zone of Growth: control zone 27
Experimental: as §1

Sclerotinia homoeocarpa = experiment: In vitro agar-dilution test; format: cell-based; conditions: for Percent Inhibition / Zone of Growth: Table 5; for Zone of Growth: control zone 23
Experimental: as §1

[2] = tested on: Phytophthora capsici Ridomil-resistant strain; experiment: In vitro agar-dilution test, Ridomil-resistant strain; format: cell-based; conditions: for Zone of Growth: control zone 28
[3] = tested on: Pythium ultimum Ridomil-sensitive strain; experiment: In vitro agar-dilution test, Ridomil-sensitive strain; format: cell-based; conditions: for Zone of Growth: control zone 39
[4] = tested on: Phytophthora capsici Ridomil-Sensitive strain; experiment: as above; format: cell-based; conditions: for Zone of Growth: control zone 27
Phytophthora infestans [5] = format: in vivo; set-up: key to Disease Control rating, Tomato Late Blight: 1=severe disease; 5=no disease; conditions: for Disease Control rating, Tomato Late Blight: 1-5 scale, average of two replicates
Phytophthora infestans [6] = format: cell-based; conditions: for Zone of Growth: control zone 12
Solubility in solvents = format: physicochemical
[7] = tested on: Tomato leaves (C. V. Rutgers); conditions: for Phytotoxicity rating, tomato leaves: average of two replicates
[8] = swimmer's itch; Mynderse et al., Science 196, 538-540 (1977); cited from earlier work
[9] = 0.1 ppm, Table 7 experiment, control zone 32
[10] = 1.0 ppm, Table 7 experiment, control zone 32
[11] = calculated from Table 5 results
[12] = calculated from Table 7 results
[13] = calculated from Table 9 results

Structure (SMILES): CCC1NC(=O)[C@H](C)NC(=O)C(C)(C)C(=O)[C@H](C)NC(=O)[C@H](Cc2ccc(OC)cc2)N(C)C(=O)[C@H](C(C)C)N(C)C(=O)CNC(=O)[C@H]([C@@H](C)CC)N(C)C(=O)CNC(=O)[C@H]([C@@H](C)CC)OC(=O)C1C (some centres unmarked) [Majusculamide C, majusculamide C] (cyclo(A[X1]G[NMeI]G[NMeV][NMeY](Me)[X2]))
- Percent Inhibition (Pythium aphanidermatum; 0.01 ppm, Table 7 experiment): 6%
- Zone of Growth (Pythium aphanidermatum; 0.01 ppm, Table 7 experiment, control zone 32): 30
- Percent Inhibition (Pythium aphanidermatum; 0.1 ppm, Table 7 experiment): 62%
- Zone of Growth (Pythium aphanidermatum; [9]): 12
- Percent Inhibition (Pythium aphanidermatum; 1 ppm, Table 5 experiment): 97%
- Zone of Growth (Pythium aphanidermatum; 1 ppm, Table 5 experiment, control zone 28): 1
- Percent Inhibition (Pythium aphanidermatum; 1.0 ppm, Table 7 experiment): 95%
- Zone of Growth (Pythium aphanidermatum; [10]): 1.5
- Percent Inhibition (Pythium aphanidermatum; 10 ppm, Table 5 experiment): 100%
- Zone of Growth (Pythium aphanidermatum; 10 ppm, Table 5 experiment, control zone 28): 0
- Percent Inhibition (Pythium aphanidermatum; 10.0 ppm, Table 7 experiment): 100%
- Zone of Growth (Pythium aphanidermatum; 10.0 ppm, Table 7 experiment, control zone 32): 0
- ED50 (effective dose to achieve 50% inhibition) (Pythium aphanidermatum; [11]): < 1 ppm
- ED50 (Pythium aphanidermatum; [12]): 0.07 ppm
- Percent Inhibition ([1]; 0.1 ppm): 60%
- Zone of Growth ([1]; 0.1 ppm): 15.5
- Percent Inhibition ([1]; 1 ppm): 91%
- Zone of Growth ([1]; 1 ppm): 3.5
- Growth observation (footnote b) ([1]; 10 ppm): No growth on plug
- Percent Inhibition ([1]; 10 ppm): 100%
- Zone of Growth ([1]; 10 ppm): 0
- ED50 [1, 13]: < 0.5 ppm
- Percent Inhibition (Aphanomyces euteiches; 0.01 ppm): 7%
- Zone of Growth (Aphanomyces euteiches; 0.01 ppm): 27
- Percent Inhibition (Aphanomyces euteiches; 0.1 ppm): 7%
- Zone of Growth (Aphanomyces euteiches; 0.1 ppm): 27
- Percent Inhibition (Aphanomyces euteiches; 1.0 ppm): 29%
- Zone of Growth (Aphanomyces euteiches; 1.0 ppm): 20.5
- Percent Inhibition (Aphanomyces euteiches; 10.0 ppm): 88%
- Zone of Growth (Aphanomyces euteiches; 10.0 ppm): 3.5
- ED50 (Aphanomyces euteiches; [12]): 2.1 ppm
- Percent Inhibition (Rhizoctonia solani; 1 ppm): 30%
- Zone of Growth (Rhizoctonia solani; 1 ppm): 19
- Percent Inhibition (Rhizoctonia solani; 10 ppm): 63%
- Zone of Growth (Rhizoctonia solani; 10 ppm): 10
- ED50 (effective dose to achieve 50% inhibition) (Rhizoctonia solani; [11]): 4 ppm
- Control of fungus (Rhizoctonia solani; suitable tests, not specified, Rhizoctonia damping-off): control
- Percent Inhibition (Sclerotinia homoeocarpa; 1 ppm): 26%
- Zone of Growth (Sclerotinia homoeocarpa; 1 ppm): 17
- Percent Inhibition (Sclerotinia homoeocarpa; 10 ppm): 30%
- Zone of Growth (Sclerotinia homoeocarpa; 10 ppm): 16
- ED50 (effective dose to achieve 50% inhibition) (Sclerotinia homoeocarpa; [11]): > 10 ppm
- Percent Inhibition ([2]; 0.1 ppm): 48%
- Zone of Growth ([2]; 0.1 ppm): 14.5
- Percent Inhibition ([2]; 1 ppm): 84%
- Zone of Growth ([2]; 1 ppm): 4.5
- Percent Inhibition ([2]; 10 ppm): 98%
- Zone of Growth ([2]; 10 ppm): 0.5
- ED50 [2, 13]: 0.25 ppm
- Percent Inhibition ([3]; 0.1 ppm): 53%
- Zone of Growth ([3]; 0.1 ppm): 18.5
- Percent Inhibition ([3]; 1 ppm): 88%
- Zone of Growth ([3]; 1 ppm): 4.5
- Percent Inhibition ([3]; 10 ppm): 100%
- Zone of Growth ([3]; 10 ppm): 0
- ED50 [3, 13]: < 0.1 ppm
- Percent Inhibition ([4]; 0.1 ppm): 46%
- Zone of Growth ([4]; 0.1 ppm): 14.5
- Percent Inhibition ([4]; 1 ppm): 74%
- Zone of Growth ([4]; 1 ppm): 7
- Percent Inhibition ([4]; 10 ppm): 100%
- Zone of Growth ([4]; 10 ppm): 0
- ED50 [4, 13]: 0.45 ppm
- Disease Control rating, Tomato Late Blight (Phytophthora infestans [5]; 6.25 ppm foliar spray): 5
- Disease Control rating, Tomato Late Blight (Phytophthora infestans [5]; 25 ppm foliar spray): 5
- Disease Control rating, Tomato Late Blight (Phytophthora infestans [5]; 100 ppm foliar spray): 5
- Disease Control rating, Tomato Late Blight (Phytophthora infestans [5]; 400 ppm foliar spray): 5
- Control of fungus (Phytophthora infestans [5]; suitable tests, not specified, tomato late blight): control
- In vivo effectiveness against tomato late blight (Phytophthora infestans [5]; summary statement): effective
- Percent Inhibition (Phytophthora infestans [6]; 0.01 ppm): 17%
- Zone of Growth (Phytophthora infestans [6]; 0.01 ppm): 10
- Percent Inhibition (Phytophthora infestans [6]; 0.1 ppm): 42%
- Zone of Growth (Phytophthora infestans [6]; 0.1 ppm): 7
- Percent Inhibition (Phytophthora infestans [6]; 1.0 ppm): 46%
- Zone of Growth (Phytophthora infestans [6]; 1.0 ppm): 6.5
- Percent Inhibition (Phytophthora infestans [6]; 10.0 ppm): 100%
- Zone of Growth (Phytophthora infestans [6]; 10.0 ppm): 0
- ED50 (Phytophthora infestans [6]; [12]): 1.07 ppm
- Solubility in organic solvents (Solubility in solvents; methanol, dichloromethane, and acetone): soluble
- Solubility in water (Solubility in solvents; water): not soluble
- Phytotoxicity rating, tomato leaves ([7]; 6.25 ppm foliar spray): 0
- Phytotoxicity rating, tomato leaves ([7]; 25 ppm foliar spray): 0
- Phytotoxicity rating, tomato leaves ([7]; 100 ppm foliar spray): 3.5
- Phytotoxicity observation, tomato leaves (footnote b) ([7]; 400 and 100 ppm foliar spray): Evidence of chlorosis
- Phytotoxicity rating, tomato leaves ([7]; 400 ppm foliar spray): 4

Structure (SMILES): COCC(=O)N(c1c(C)cccc1C)C(C)C(=O)OC (centres unmarked) [Ridomil (tech.), reference compound]
- Percent Inhibition (Pythium aphanidermatum; 0.1 ppm, Table 7 experiment): 34%
- Zone of Growth (Pythium aphanidermatum; [9]): 21
- Percent Inhibition (Pythium aphanidermatum; 1.0 ppm, Table 7 experiment): 94%
- Zone of Growth (Pythium aphanidermatum; [10]): 2
- Percent Inhibition (Aphanomyces euteiches; 0.1 ppm): 7%
- Zone of Growth (Aphanomyces euteiches; 0.1 ppm): 27
- Percent Inhibition (Aphanomyces euteiches; 1.0 ppm): 3%
- Zone of Growth (Aphanomyces euteiches; 1.0 ppm): 28
- Percent Inhibition (Phytophthora infestans [6]; 0.1 ppm): 50%
- Zone of Growth (Phytophthora infestans [6]; 0.1 ppm): 6
- Percent Inhibition (Phytophthora infestans [6]; 1.0 ppm): 83%
- Zone of Growth (Phytophthora infestans [6]; 1.0 ppm): 2

Structure (SMILES): CO[C@@H](CC[C@H](C)[C@H]1O[C@@]23C[C@H](OC(=O)C[C@H]([C@@H](C)O)OC(=O)C[C@](O)(O2)[C@H](C)CC3(C)C)[C@@H]1C)c1cccc(O)c1 [debromoaplysiatoxin]
- Contact dermatitis [8]: causes a severe contact dermatitis
